Laboratory results reported in patent US9017713B2, “Magnetic carrier and medical preparation for controllable delivery and release of active substances, methods of their production and methods of treatment using thereof” (priority 2006, dated 2015).

Assays:
[1] = F 127 ferrofluid gel, constant magnetic field; cited from earlier work
[2] = Desorption of pharmaceutical from heat-sensitive polymer film on magnetic carrier by cooling below LCST; format: physicochemical; settings: Fe0.49Rh0.51 plates with graphite layer, film of copolymer NIPAAm with 35 mol % tBuAM; cooled below LCST to 15.9° C.
Protocol: The method may be realized, for example, as follows: quenched magnetic material Fe0.49Rh0.51 covered with a heat-sensitive polymer together with a pharmaceutical (for example, anti-inflammatory) in the form of particles in of about 150-200 nm is administered inside of an organism through a catheter and delivery of the aforementioned particles is performed to a target organ or a tissue. Magnetic field of 2 T is applied on the area, where the particles are concentrated. The magnetic material is cooled by 13° C., which results in refrigerating of a heat-sensitive polymer, for example (co)polymer N-iso-propyl acrylamide, down to temperature below LCST, in this case down to 24° C., and desorption of the pharmaceutical from the surface of heat-sensitive polymer takes place.
A procedure analogous to that described in Example 4, but administration of a pharmaceutical Adriablastin in an organism is made, when the magnetic carrier represents alloy of iron-rhodium Fe0.49Rh0.51, which surface is covered with copolymer NIPAAm with 35 mol % of tBuAM film, with alloy surface preliminary covered with a thin protective graphite layer (preventing oxidation); the magnetic material is prepared in the form of plates. […]

| Molecule | Increase of release after application of magnetic field to the gel [1] | Time of desorption [2] |
| --- | --- | --- |
| vitamin B12 | 20% | – |
| COc1cccc2c1C(=O)c1c(O)c3c(c(O)c1C2=O)C[C@@](O)(C(=O)CO)C[C@@H]3O[C@H]1C[C@H](N)[C@H](O)[C@H](C)O1 [Adriablastin] | – | 30 ± 5 min |
